# Laboratory results as given in ChEMBL document CHEMBL1201862, “PubChem BioAssay data set” (2004).
#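 These data come from cells grown in 96-well plates and exposed to compound for 48 hours at five concentrations. At the GI50, growth is halved.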 Calls of active or inactive are those of the source. Rule as the data show it: active = GI50 up to about 1.1 µM and inactive = higher.
# Legend:
# Experiment in all cases: NCI-60 cell line screen, 48 h
# A498 = system: A498
# CAKI-1 = system: CAKI-1
# CCRF-CEM = system: CCRF-CEM
# EKVX = system: EKVX
# HOP-62 = system: HOP-62
# Hs-578T = system: Hs-578T
# K562 = system: K562
# MDA-MB-231 = system: MDA-MB-231
# MDA-MB-435 = system: MDA-MB-435
# MOLT-4 = system: MOLT-4
# Malme-3M = system: Malme-3M
# NCI-H226 = system: NCI-H226
# NCI/ADR-RES = system: NCI/ADR-RES
# PC-3 = system: PC-3
# SK-MEL-2 = system: SK-MEL-2
# SNB-75 = system: SNB-75
# SR = system: SR
# UO-31 = system: UO-31
# SK-MEL-28 = system: SK-MEL-28
# RXF 393 = system: RXF 393
Structure (SMILES),GI50 (A498),GI50 (CAKI-1),GI50 (CCRF-CEM),GI50 (EKVX),GI50 (HOP-62),GI50 (Hs-578T),GI50 (K562),GI50 (MDA-MB-231),GI50 (MDA-MB-435),GI50 (MOLT-4),GI50 (Malme-3M),GI50 (NCI-H226),GI50 (NCI/ADR-RES),GI50 (PC-3),GI50 (SK-MEL-2),GI50 (SNB-75),GI50 (SR),GI50 (UO-31),GI50 (SK-MEL-28),GI50 (RXF 393)
O=C1c2ccccc2-c2[nH]c3cn[nH]c(=O)c3c21,33.5 µM (inactive),91.6 µM (inactive),> 100 µM (inactive),79.4 µM (inactive),82 µM (inactive),64.9 µM (inactive),61.2 µM (inactive),97.5 µM (inactive),48.6 µM (inactive),> 100 µM (inactive),> 100 µM (inactive),78.7 µM (inactive),> 100 µM (inactive),> 100 µM (inactive),47.2 µM (inactive),42.6 µM (inactive),45 µM (inactive),23.8 µM (inactive),–,–
Cc1cc(C)c(C)c(-n2[nH]c(=O)n(C)c2=O)c1C,> 100 µM (inactive),> 100 µM (inactive),> 100 µM (inactive),> 100 µM (inactive),> 100 µM (inactive),> 100 µM (inactive),> 100 µM (inactive),> 100 µM (inactive),> 100 µM (inactive),> 100 µM (inactive),–,> 100 µM (inactive),> 100 µM (inactive),> 100 µM (inactive),> 100 µM (inactive),–,> 100 µM (inactive),> 100 µM (inactive),> 100 µM (inactive),–
C#CCOCC12C=CC(O1)C1C(=O)OCC12 (stereo unspecified),> 100 µM (inactive),> 100 µM (inactive),> 100 µM (inactive),> 100 µM (inactive),> 100 µM (inactive),> 100 µM (inactive),> 100 µM (inactive),> 100 µM (inactive),> 100 µM (inactive),> 100 µM (inactive),> 100 µM (inactive),> 100 µM (inactive),> 100 µM (inactive),> 100 µM (inactive),–,> 100 µM (inactive),> 100 µM (inactive),> 100 µM (inactive),> 100 µM (inactive),> 100 µM (inactive)
O=C(CC(C(=O)c1cccs1)c1ccsc1)c1ccc(Cl)cc1 (stereo unspecified),> 100 µM (inactive),> 100 µM (inactive),> 100 µM (inactive),> 100 µM (inactive),> 100 µM (inactive),> 100 µM (inactive),> 100 µM (inactive),> 100 µM (inactive),> 100 µM (inactive),> 100 µM (inactive),> 100 µM (inactive),81.8 µM (inactive),83.8 µM (inactive),> 100 µM (inactive),> 100 µM (inactive),> 100 µM (inactive),> 100 µM (inactive),> 100 µM (inactive),> 100 µM (inactive),–
CC(=O)O[C@H]1C(=O)[C@@]2(C)[C@H]([C@H](OC(=O)c3ccccc3)[C@]3(O)C[C@H](OC(=O)[C@H](O)[C@@H](NC(=O)OC(C)(C)C)c4ccco4)C(C)=C1C3(C)C)[C@]1(OC(C)=O)CO[C@@H]1C[C@@H]2O,2.47 µM (inactive),0.00802 µM (active),< 0.005 µM (active),14.7 µM (inactive),0.00804 µM (active),< 0.005 µM (active),< 0.005 µM (active),< 0.005 µM (active),< 0.005 µM (active),0.00667 µM (active),6.61 µM (inactive),–,0.0185 µM (active),< 0.005 µM (active),0.00723 µM (active),< 0.005 µM (active),0.053 µM (active),0.0105 µM (active),0.205 µM (active),0.00899 µM (active)
COC(=O)C1=CSC2(S1)C(C(=O)OC)=CSc1c2ss/c1=N\c1ccccc1 (stereo unspecified),1.64 µM (inactive),2.98 µM (inactive),1.6 µM (inactive),4.59 µM (inactive),2.88 µM (inactive),2.55 µM (inactive),2.7 µM (inactive),2.07 µM (inactive),1.78 µM (inactive),0.714 µM (active),0.813 µM (active),–,1.69 µM (inactive),5.08 µM (inactive),2 µM (inactive),2.22 µM (inactive),0.605 µM (active),2.52 µM (inactive),2.38 µM (inactive),1.78 µM (inactive)
COC1C(=O)CCC2(CO2)C1(O)C1(C)OC1CCC(C)C (stereo unspecified),> 100 µM (inactive),> 100 µM (inactive),40.4 µM (inactive),> 100 µM (inactive),54.5 µM (inactive),84.3 µM (inactive),32.5 µM (inactive),15.6 µM (inactive),61.1 µM (inactive),40.1 µM (inactive),30.2 µM (inactive),> 100 µM (inactive),> 100 µM (inactive),25.9 µM (inactive),–,> 100 µM (inactive),> 100 µM (inactive),> 100 µM (inactive),21.8 µM (inactive),> 100 µM (inactive)
O=C(O)Cc1cc(O)c(CC(=O)O)cc1O,> 100 µM (inactive),> 100 µM (inactive),–,> 100 µM (inactive),> 100 µM (inactive),> 100 µM (inactive),> 100 µM (inactive),> 100 µM (inactive),> 100 µM (inactive),> 100 µM (inactive),> 100 µM (inactive),> 100 µM (inactive),> 100 µM (inactive),> 100 µM (inactive),> 100 µM (inactive),–,> 100 µM (inactive),> 100 µM (inactive),> 100 µM (inactive),> 100 µM (inactive)
CC(=O)N1C(c2[nH]c3ccccc3c2-c2ccccc2)CCN1c1ccccc1 (stereo unspecified),–,> 10 µM (inactive),7.8 µM (inactive),> 10 µM (inactive),> 10 µM (inactive),> 10 µM (inactive),9.18 µM (inactive),> 10 µM (inactive),> 10 µM (inactive),> 10 µM (inactive),> 10 µM (inactive),> 10 µM (inactive),> 10 µM (inactive),8.97 µM (inactive),> 10 µM (inactive),> 10 µM (inactive),> 10 µM (inactive),> 10 µM (inactive),> 10 µM (inactive),> 10 µM (inactive)
O=C1NC(N2CCOCC2)=N/C1=C\c1ccco1,–,> 100 µM (inactive),> 100 µM (inactive),> 100 µM (inactive),> 100 µM (inactive),> 100 µM (inactive),–,> 100 µM (inactive),> 100 µM (inactive),> 100 µM (inactive),–,> 100 µM (inactive),> 100 µM (inactive),> 100 µM (inactive),> 100 µM (inactive),> 100 µM (inactive),> 100 µM (inactive),> 100 µM (inactive),> 100 µM (inactive),> 100 µM (inactive)
Nc1ncnc2c1ncn2C1C=CC(CP(=O)(O)O)C1 (stereo unspecified),–,> 100 µM (inactive),–,> 100 µM (inactive),> 100 µM (inactive),11 µM (inactive),–,> 100 µM (inactive),> 100 µM (inactive),> 100 µM (inactive),> 100 µM (inactive),> 100 µM (inactive),> 100 µM (inactive),> 100 µM (inactive),> 100 µM (inactive),> 100 µM (inactive),> 100 µM (inactive),> 100 µM (inactive),> 100 µM (inactive),> 100 µM (inactive)
